{"source": "patent US8349365B2", "about": "“Cellooligosaccharide-containing composition” (priority 2005, dated 2013)", "key": {"[1]": {"assay": "oil retention (rapeseed oil)", "type": "physicochemical", "details": "same manner as in Example 4", "description": "The oil retention of the cellooligosaccharide composition of the present invention is preferably 0.9 g/g. The term “oil retention” means the amount of oil absorbed per 1 g of powder measured by placing 2 g of a cellooligosaccharide composition on a glass plate, kneading powder with a spatula while adding rapeseed oil (Nissin Canola Oil, dropwise using a pipette, and using the point at which oil soaks out of the powder surface as the end point and is expressed by Oil retention (g/g)=amount of oil absorption (g)/amount of cellooligosaccharide composition (g). A greater value is preferable because separation or soaking out of oil, semisolid or liquid can be prevented when a food, a cosmetic, a drug, or a quasi-drug is produced with a prescription containing oil or a prescription containing a semisolid or a liquid at room temperature. The oil retention is more preferably in the range of 1.0 g/g and higher, particularly preferably in the range of 1.1 g/g and higher."}, "[2]": {"test_system": "rough skin, inner side of the forearm", "assay": "transepidermal water loss (TEWL) recovery test", "type": "in vivo, human", "description": "The barrier function in the present invention is expressed by the recovery-promoting rate of transepidermal water loss, and the recovery-promoting rate of transepidermal water loss of the agent for improving barrier function of the present invention is preferably 10% or higher. The recovery-promoting rate referred to herein is expressed by a decreasing rate of relative transepidermal water loss of the cellooligosaccharide-containing composition to a relative transepidermal water loss of purified water using a relative transepidermal water loss 2 hours after applications of the aqueous cellooligosaccharide solution and a relative transepidermal water loss obtained from purified water to the rough skin. This value is obtained by the following expression. Recovery-promoting rate(%)=([relative transepidermal water loss of water)−[relative transepidermal water loss of cellooligosaccharide-containing composition]/(relative transepidermal water loss of water)×100\nFurthermore, a relative value of the above-mentioned transepidermal water loss (relative transepidermal water loss) can be measured by transepidermal water loss (TEWL) in the rough skin. First, the inner side of the forearm (test site) is wiped with 70% ethanol and habituated in a room with a constant temperature and a humidity (room temperature 22° C., humidity 45%) for 15 minutes, and the test site is measured with a 2-channel moisture loss monitor (manufactured by Asahi Biomed, TW-AS type to obtain the initial TEWL value (TEWEL0). Then, after measurement of the initial TEWL, the test site is washed with water, the test site is coated with 2% by mass of sodium dodecylsulfate (SDS, by a closed patch and washed with water using a Finn chamber (manufactured by Epitest), and then TEWL (TSWL rough skin) is measured in the same manner as described above. Then purified water or the aqueous cellooligosaccharide solution of the present invention is applied to the same site, and TEWL at the site is measured 2 hours after application (TEWL2) by the above-described method. […]"}}}
{"smiles": "OC[C@H]1O[C@@H](O[C@H]2[C@H](O)[C@@H](O)[C@H](O)O[C@@H]2CO)[C@H](O)[C@@H](O)[C@@H]1O", "note": "[D-cellobiose]", "values": [{"measurement": "oil retention", "setting": "[1]", "result": 0.85}]}
{"smiles": "OC[C@H]1O[C@H](OC[C@H]2O[C@H](O[C@]3(CO)O[C@H](CO)[C@@H](O)[C@@H]3O)[C@H](O)[C@@H](O)[C@@H]2O)[C@H](O)[C@@H](O)[C@H]1O", "note": "[compound 9, raffinose]", "values": [{"measurement": "relative TEWL value after 2 hours", "setting": "[2]; SDS-treated forearm skin of 3 male and 2 female subjects, rough skin taken as 100, 2 hours after application", "result": 42.1, "unit": "%"}, {"measurement": "TEWL RECOVERY-PROMOTING RATE AFTER 2 HOURS", "setting": "[2]; relative to purified water, 2 hours after application", "result": "−7.1", "unit": "%"}]}
{"smiles": "OC[C@H]1O[C@H](OC[C@H]2O[C@H](O[C@]3(CO)O[C@H](CO)[C@@H](O)[C@@H]3O)[C@H](O)[C@@H](O)[C@@H]2O)[C@H](O)[C@@H](O)[C@H]1O", "note": "[compound 13, raffinose]", "values": [{"measurement": "relative TEWL value", "setting": "[2]; measured in the same manner as in Examples 19 to 23, 5% by mass", "result": 42.1, "unit": "%"}]}
